Like-named read-outs stand apart in the source and are kept apart here.
What was measured:
BT474 cells = assay: In vitro cytotoxicity, ATPlite luminescence assay; assay type: cell-based; conditions: Homo sapiens, BT-474; BT474 (HER2+), 48 h treatment + 24 h fresh medium, µM in DXR
Experimental: (§1) For cytotoxicity experiments, four human cancer cell lines were used, that is, three HER2+ BT474 (ATCC HTB‐20), SKBR3 (ATCC HTB‐ 30) and SKOV3 (ATCC HTB‐77), and the HER2‐ MDA‐MB‐231 (ATCC HTB‐26). Cells were maintained in DMEM medium supplemented with 10% fetal bovine serum (FBS), 1% glutamine, 1% penicillin‐streptomycin, in humidified conditions at 37 °C with 5% CO2.
(§2) The cytotoxic effect of formulations was evaluated on HER2+ (BT474, SKBR3, and SKOV3) and HER2‐ (MDA‐MB‐231) cell lines by means of the ATPlite Luminescence ATP Detection Assay System. The cytotoxic effect of targeted DXR‐loaded liposomal formulations was compared to that of non‐targeted DXR‐loaded liposomes and free DXR (positive control). Cells treated only with the medium were used as control. Briefly, the cells were seeded in black 96‐well plates at a density of 5000 cells/well (SKBR3, SKOV3, and MDA‐MB‐231) and 7500 cells/well (BT474). After 24 h, cells were treated with increasing concentrations of the liposomal formulations (0.01–50 µM in DXR, n = 7) for 24 (SKBR3, SKOV3, and MDA‐MB‐231) or 48 (BT474) h. At the end of the exposure, treatments were replaced by fresh complete medium for 24 h. To quantify ATP production, cells were treated following the manufacturer's instructions, and luminescence was quantified by means of a Victor Nivo multi‐plate reader (PerkinElmer, Waltham, MA, USA). The percentage of cell viability was determined as (luminescencetreated cells/luminescencecontrol cells) × 100. IC50 values were calculated using GraphPad Prism 9.0 (San Diego, CA, USA) by a nonlinear regression model.

SKBR3 cells = assay: In vitro cytotoxicity, ATPlite luminescence assay; assay type: cell-based; conditions: Homo sapiens, SK-BR-3; SKBR3 (HER2+), 24 h treatment + 24 h fresh medium, µM in DXR
Experimental: as §1, §2

SKOV3 cells = assay: In vitro cytotoxicity, ATPlite luminescence assay; assay type: cell-based; conditions: Homo sapiens, SK-OV-3; SKOV3 (HER2+), 24 h treatment + 24 h fresh medium, µM in DXR
Experimental: as §1, §2

[1] = Pharmacokinetic study in rats; assay type: in vivo, Sprague Dawley rats; conditions: 2.5 mg kg^−1 in DXR i.v.; for half-life: female, Sprague Dawley, rat, plasma, iv, 2.5 mg/kg, bicompartmental model
Experimental: DXR was extracted by treating 50 µL of plasma with 10 µL of 1 M Triton X‐100 and 580 µL of 81 mM HCl in isopropanol to allow plasma proteins precipitation. After overnight incubation at 4 °C, samples were centrifuged for 3 min × 3000 rpm and the supernatants were analyzed using an FP‐6500 Jasco spectrofluorometer (λ ex = 470 nm; λ em = 584 nm). DXR concentration in each plasma sample was extrapolated through a calibration curve of standard solutions of either DXR or DXR‐loaded SL for the liposomal formulations. The pharmacokinetic analysis was performed using the PKSolver 2.0 software by applying a bicompartmental model.

[2] = Toxicological study in rats (blood count, plasma biochemistry, histology); assay type: in vivo, Sprague Dawley rats
Source text: The study protocol was approved by the Ethics Committee of the University of Padova and the Italian Ministry of Health (Prot. No. 938/2016‐PR obtained on October 10, 2016), and animals were handled in compliance with national and international guidelines, that is, the Italian Legislative Decree 26/2014 and the “Guide for the Care and Use of Laboratory Animals” by the National Research Council of the National Academies. Female Sprague Dawley rats (140–190 g) were randomly divided into groups of 6 rats each. A dose of 2.5 mg kg^−1 in DXR of either free drug or DXR‐loaded liposomal formulations (SL, SIL, SSIL2) was administered via tail vein to the rats previously anesthetized with isoflurane gas (mixed with O2 in enclosed cages). At scheduled time points, blood samples (≈200 µL) were collected from the tail into heparin‐treated tubes and thereafter immediately centrifuged 15 min × 1500 × g to separate plasma. Rats were euthanized with isoflurane anesthesia 48 h after administration and the blood was collected with an intracardiac puncture to measure complete blood count and plasma biochemistry. These measurements were performed by means of standard laboratory tests.^[ [27] ^] After sacrifice, the main organs (liver, spleen, lungs, kidneys, heart, brain, ovaries) were collected, weighed, washed with saline solution, and frozen in liquid nitrogen. An appropriate amount of each organ was placed in formalin for histological analysis.^[ [28] ^]

## COc1cccc2c1C(=O)c1c(O)c3c(c(O)c1C2=O)C[C@@](O)(C(=O)CO)C[C@@H]3O[C@H]1C[C@H](N)[C@H](O)[C@H](C)O1 [DXR, Doxorubicin]
BT474 cells
  IC50: 0.08 ± 0.003 µM
SKBR3 cells
  IC50: 0.034 ± 0.026 µM
SKOV3 cells
  IC50: 0.092 ± 0.004 µM
[1]
  AUC0‐inf: 60 ± 31 ng·h/mL
[1]; read-out: t 1/2 alpha (converted)
  half-life: 34.4 ± 21.6 min
[1]; read-out: t 1/2 beta (converted)
  half-life: 79.1 ± 48.7 min
[2]; 2.5 mg kg^−1 in DXR i.v., 48 h
  Anemia (red blood cells, hemoglobin, hematocrit decreased versus controls): anemic
  Erythrocytes (RBCs): 4.61e+12 L⁻¹
  Hematocrit: 0.286 L/L
  Hemoglobin: 93 ± 10 g/L
  Liver histology: small and isolated granulomatous lesion
  MCH: 20.3 ± 0.4 pg
  MCHC: 329 ± 20 g/L
  MCV: 61.8 ± 2.9 fL
  Platelets (PLTs): 811 ± 402 x109/L
  RDW: 11.8 ± 0.5%
  Spleen histology: slight increased hematopoiesis
[2]; 2.5 mg kg^−1 in DXR i.v., 48 h after administration
  Leukocytes (WBCs): 2.05 ± 1.15 x109/L
[2]; plasma biochemistry, 2.5 mg kg^−1 in DXR i.v., 48 h
  Glucose: 10.7 ± 0.8 mmol/L
[2]; plasma biochemistry, 48 h
  ALP: 143 ± 36 U/L
  ALT: 20 ± 6 U/L
  AST: 78 ± 16 U/L
  Albumin: 42 ± 3 g/L
  Calcium: 2.67 ± 0.09 mmol/L
  Chloride: 102 ± 2 mmol/L
  Creatinine: 16 ± 2 µM
  Direct bilirubin: 0.3 ± 0.2 µM
  Inorganic Phosphorous: 2.45 ± 0.16 mmol/L
  Potassium: 3.9 ± 0.4 mmol/L
  Sodium: 142 ± 1 mmol/L
  Total bilirubin: 0.4 ± 0.2 µM
  Total cholesterol: 64 ± 9 mg/dL
  Triglycerides: 64 ± 37 mg/dL
  Urea: 4.7 ± 0.2 mmol/L

— publication PMC11469322, “Anti‐HER2 Super Stealth Immunoliposomes for Targeted‐Chemotherapy” (Advanced Healthcare Materials, 2023)
